Laboratory results reported in patent publication EP0565593B1, “REDUCING PESTICIDAL INTERACTIONS IN CROPS” (priority 1990, dated 1992).
Read-outs that look alike come from different tables or passages of the source.

How the values were obtained:
[1] = test system: Corn; details: Example 29; COUNTER/PURSUIT negative synergy
[2] = test system: Corn; assay: Greenhouse test Procedure VI: biocide and antidote in furrow, herbicide PPI in cover layer (Examples 43-47, 59-61; Tables 42-46, 58-60); format: in vivo
Procedure, shortened: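 Corn seed furrows given granular biocide (COUNTER 15G, 1.1 mg a.i./cm row) and antidote (0.37 mg a.i./cm row); herbicide in acetone or acetone/water incorporated into cover-layer soil (PPI). Duplicate pots in greenhouse, subirrigated plus overhead watering; corn injury observed, in some series thirteen days after PPI, against untreated, herbicide and herbicide+biocide controls.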

[3] = test system: Corn

## COC(=O)COC(c1ccccc1)c1ccccc1 [Antidote No. 12, Acetic acid, (diphenylmethoxy)-, methyl ester]
[1]
  relieving corn injury, comparison: more active than Antidote No. 28
[2]; COUNTER 15G + PURSUIT/co-herbicides, Example 61
  safener efficacy, comparison: more effective than flurazole or MON-4660
[2]; COUNTER 15G + XRD-498/co-herbicide mixture, Example 60
  safener efficacy: most effective safener
[2]; COUNTER 15G/PURSUIT interaction, Example 47
  safening: good activity
[3]; DIAZINON + Herbicides 1, 21, 18, Example 53
  safening: Effective safening
[3]; malathion + Herbicides 1, 21, 18, Example 54
  safening: moderate to high degrees of safening
